Patent US20060293383A1, “Carbamate compounds for use in preventing or treating neuropathic pain and cluster and migraine headache-associated pain” (priority 2001, published 2006)

System: Chung model of neuropathic pain
Assay: Antiallodynic activity in the Chung model (spinal nerve ligation), manually applied von Frey probes
Assay type: in vivo, Sprague-Dawley rats
Details: for % Maximum Possible Effect: 30 min after oral dosing (time of peak effect), L5 spinal nerve ligated rats, paw withdrawal threshold
Description: The procedure used to test the antiallodynic activity of an enantiomer of Formula (I) substantially free of other enantiomers was the procedure for the measurement of allodynia found in the Chung Model (Kim S. H. and Chung J. M., An Experimental Model for Peripheral Neuropathy Produced by Segmental Spinal Nerve Ligation in the Rat, Pain, 1992, 50, 355-363).
Evaluation of Antiallodynic Activity (Manually Applied Von Frey Probes) Animals
Pathogen-free, male albino Sprague-Dawley rats, 200 g, were purchased from Harlan Industries (Indianapolis, Ind.) and maintained on a 12-h light/dark cycle (lights on at 06:00 h) in a climate-controlled room with food and water available ad libitum up to the time of the testing and food withdrawn 18 hr prior to testing.
Surgical Procedure and Measurement of Allodynia
The rats were anesthetized with isoflurane inhalant anesthesia. The left lumbar spinal nerve at the level of L5 was tightly ligated (4-0 silk suture) distal to the dorsal root ganglion and prior to entrance into the sciatic nerve, as described by Kim and Chung. The incisions were closed and the rats were allowed to recover under conditions described above. This procedure results in mechanical allodynia in the left hind paw. The sham operation, when performed, consisted of a similar surgical procedure lacking only the final ligation of the spinal nerve. Mechanical (tactile) allodynia was assessed by recording the pressure at which the affected paw (ipsilateral to the site of nerve injury) was withdrawn from graded stimuli (von Frey filaments ranging from 4.0 to 148.1 mN) applied by hand perpendicularly to the plantar surface of the paw (between the footpads) through wire-mesh observation cages. A paw withdrawal threshold (PWT) was determined by sequentially increasing and decreasing the stimulus strength and analyzing withdrawal data using a Dixon non-parametric test, as described by Chaplan et al (Chaplan S. R., Bach F. W., Pogrel J. W., Chung J. M. and Yaksh T. L., Quantitative Assessment of Tactile Allodynia in the Rat Paw, J Neurosci Meth, 1994, 53, 55-63). […]

`NC(=O)OC[C@H](O)c1ccccc1Cl` [Formula (Ib)] was tested, and the “% Maximum Possible Effect” value (30 mg/kg po) was 11%, the “% Maximum Possible Effect” value (100 mg/kg po) was 28% and the “time of peak antiallodynic effect” value (after oral dosing, 30 and 100 mg/kg) was 30 min.
